Results as given in patent publication US9556158B2, “Fungicidal 3-[(pyridin-2-ylmethoxyimino)(phenyl)methyl]-2-substituted-1,2,4-oxadiazol-5(2H)-one derivatives” (BAYER INTELLECTUAL PROPERTY GMBH, priority 2011, dated 2017).
Read-outs that look alike come from different tables or passages of the source.

Key:
Phytophthora infestans = experiment: whole plant or invertebrate; format: in vivo; conditions: in Solanum lycopersicum, 120 h, read-out: % efficacy
[1] = pH 2.7, LogP, HPLC on reversed phase columns, pH 2.7, 0.1% formic acid in water / acetonitrile gradient
Protocol: Measurement of log P values was performed according EEC directive 79/831 Annex V.A8 by HPLC (High Performance Liquid Chromatography) on reversed phase columns with the following method:
Measurement of LC-MS was done at pH 2.7 with 0.1% formic acid in water and with acetonitrile (contains 0.1% formic acid) as eluent with a linear gradient from 10% acetonitrile to 95% acetonitrile.
Calibration was done with not branched alkan2-ones (with 3 to 16 carbon atoms) with known log P-values (measurement of log P values using retention times with linear interpolation between successive alkanones). lambda-maX-values were determined using UV-spectra from 200 nm to 400 nm and the peak values of the chromatographic signals.

[2] = compounds of formula (V), Table 2

Structure (SMILES) | pest or weed control at 500 ppm (Phytophthora infestans) | chromatographic logP [1] | chromatographic logP [1, 2]
CCCCC(=O)Nc1cccc(CON=C(c2cccc(F)c2)c2nc(=O)o[nH]2)n1 [Example 72] | 85% | 2.98 | –
COc1cccc(C(=O)Nc2cccc(CON=C(c3cccc(OC)c3)c3nc(=O)o[nH]3)n2)c1 [Example 63] | 80% | 3.06 | –
COc1cccc(C(=NOCc2cccc(NC(=O)OC3CCCCC3)n2)c2nc(=O)on2C)c1 [Example 28] | 78% | 3.85 | –
CCCCC(=O)Nc1cccc(CON=C(c2ccccc2)c2nc(=O)on2C)n1 [Example 12] | 100% | 2.9 | –
COc1cccc(C(=NOCc2cccc(NC(=O)OCc3ccccc3)n2)c2nc(=O)on2C)c1 [Example 104] | 88% | 3.42 | –
Cc1ccc(C(=O)Nc2cccc(CON=C(c3cccc(C)c3)c3nc(=O)on3C)n2)cc1 [Example 80] | 80% | 3.53 | –
CCCCOC(=S)Nc1cccc(CON=C(c2ccccc2)c2nc(=O)on2C)n1 [Example 43] | 99% | 3.89 | –
CCCCCOC(=O)Nc1cccc(CON=C(c2cccc(C)c2)c2nc(=O)on2C)n1 [Example 56] | 83% | 4.11 | –
CCCCSC(=S)Nc1cccc(CON=C(c2ccccc2)c2nc(=O)on2C)n1 [Example 38] | 93% | 4.15 | –
Cc1cccc(C(=NOCc2cccc(NC(=O)C(C)(C)C)n2)c2nc(=O)on2C)c1 [Example 57] | 75% | 3.17 | –
CCCCCOC(=O)Nc1cccc(CON=C(c2cccc(OC)c2)c2nc(=O)on2C)n1 [Example 102] | 98% | 3.83 | –
CCCCOC(=O)Nc1cccc(CON=C(c2cccc(OC)c2)c2nc(=O)o[nH]2)n1 [Example 66] | 70% | 3.42 | –
CCCCOC(=O)Nc1cccc(CON=C(c2cccc(F)c2)c2nc(=O)o[nH]2)n1 [Example 71] | 95% | 3.48 | –
CCCCCC(=O)Nc1cccc(CON=C(c2cccc(F)c2)c2nc(=O)o[nH]2)n1 [Example 68] | 98% | 3.37 | –
CCn1oc(=O)nc1/C(=N\OCc1cccc(NC(=O)OC(C)(C)C)n1)c1ccccc1 [Example 40, tert-butyl {6-[({[(Z)-(2-ethyl-5-oxo-2,5-dihydro-1,2,4-oxadiazol-3-yl)(phenyl)methylene]amino}oxy)methyl]pyridin-2-yl}carbamate] | 73% | 3.58 | –
CCCCOC(=O)Nc1cccc(CON=C(c2cccc(C)c2)c2nc(=O)on2C)n1 [Example 58] | 75% | 3.69 | –
C#CCCOC(=O)Nc1cccc(CON=C(c2cccc(C)c2)c2nc(=O)on2C)n1 [Example 84] | 100% | 2.96 | –
CC(C(=O)Nc1cccc(CON=C(c2ccccc2)c2nc(=O)on2C)n1)c1ccccc1 (stereo not shown) [Example 155] | – | 3.29 | –
C=CCCCCOC(=O)Nc1cccc(CON=C(c2ccccc2)c2nc(=O)on2C)n1 [Example 123] | – | 3.76 | –
Cn1oc(=O)nc1C(=NOCc1cccc(NC(=O)Cc2cccs2)n1)c1ccccc1 [Example 135] | – | 2.86 | –
COCCN(O)C(=N)C(=NOCc1cccc(NC(=O)OC(C)(C)C)n1)c1ccccc1 [Example V-07] | – | – | 1.93
Cn1oc(=O)nc1C(=NOCc1cccc(NC(=O)OCCC2CC2)n1)c1ccccc1 [Example 138] | – | 3.39 | –
CC(C)n1oc(=O)nc1C(=NOCc1cccc(NC(=O)OC(C)(C)C)n1)c1ccccc1 [Example 41] | – | 3.8 | –
Cn1oc(=O)nc1C(=NOCc1cccc(NC(=O)c2ccccc2)n1)c1ccccc1 [Example 160] | – | 2.92 | –

Structure (SMILES) | pest or weed control at 500 ppm (Phytophthora infestans) | chromatographic logP [1] | chromatographic logP [1, 2]
C#CCC(C)OC(=O)Nc1cccc(CON=C(c2ccccc2)c2nc(=O)on2C)n1 (stereo not shown) [Example 125] | – | 2.98 | –
CCCCCC(=O)Nc1cccc(CON=C(c2ccccc2)c2nc(=O)on2CCOC)n1 [Example 175] | – | 3.5 | –
Cn1oc(=O)nc1/C(=N\OCc1cccc(N)n1)c1ccccc1 [Example 11, 3-[(Z)-{[(6-aminopyridin-2-yl)methoxy]imino}(phenyl)methyl]-2-methyl-1,2,4-oxadiazol-5(2H)-one] | – | 0.84 | –
Cn1oc(=O)nc1C(=NOCc1cccc(NC(=O)CC2CCCC2)n1)c1ccccc1 [Example 115] | – | 3.29 | –
Cn1oc(=O)nc1C(=NOCc1cccc(NC(=O)Cc2ccccc2)n1)c1ccccc1 [Example 126] | – | 2.94 | –
Cn1oc(=O)nc1C(=NOCc1cccc(NC(=O)OCCc2ccccc2)n1)c1cccc(F)c1 [Example 165] | – | 3.65 | –
Cn1oc(=O)nc1C(=NOCc1cccc(NC(=O)OCCCCl)n1)c1ccccc1 [Example 133] | – | 3.02 | –
Cn1oc(=O)nc1C(=NOCc1cccc(NC(=O)CCC2CCCCC2)n1)c1ccccc1 [Example 147] | – | 4.06 | –
CC(Oc1ccccc1)C(=O)Nc1cccc(CON=C(c2ccccc2)c2nc(=O)on2C)n1 (stereo not shown) [Example 140] | – | 3.35 | –
C=CCCCOC(=O)Nc1cccc(CON=C(c2ccccc2)c2nc(=O)on2C)n1 [Example 129] | – | 3.41 | –
Cc1cccc(C(=NOCc2cccc(NC(=O)OCc3ccccc3)n2)c2nc(=O)on2C)c1 [Example 167] | – | 3.68 | –
COc1cccc(C(=NOCc2cccc(NC(=O)OC(C)(C)C)n2)C(=N)N(C)O)c1 [Example V-06] | – | – | 1.86
Cn1oc(=O)nc1C(=NOCc1cccc(NC(=O)C2CCCCC2)n1)c1ccccc1 [Example 146] | – | 3.29 | –
CN(O)C(=N)/C(=N\OCc1cccc(NC(=O)OC(C)(C)C)n1)c1ccccc1 [Example V-02, tert-butyl (6-{[({(1Z)-2-[hydroxy(methyl)amino]-2-imino-1-phenylethylidene}amino)oxy]methyl}pyridin-2-yl)carbamate] | – | – | 1.81
CC(OC(=O)Nc1cccc(CON=C(c2ccccc2)c2nc(=O)on2C)n1)C1CCCCC1 (stereo not shown) [Example 141] | – | 4.56 | –
Cn1oc(=O)nc1C(=NOCc1cccc(NC(=O)c2ccc(F)cc2)n1)c1cccc(F)c1 [Example 92] | – | 3.15 | –
Cn1oc(=O)nc1C(=NOCc1cccc(NC(=O)OCCCC2CC2)n1)c1ccccc1 [Example 181] | – | 3.76 | –
Cc1cccc(C(=O)Nc2cccc(CON=C(c3cccc(C)c3)c3nc(=O)on3C)n2)c1 [Example 86] | – | 3.55 | –
Cn1oc(=O)nc1C(=NOCc1cccc(NC(=O)CCc2ccccc2)n1)c1ccccc1 [Example 119] | – | 3.21 | –
Cn1oc(=O)nc1C(=NOCc1cccc(NC(=O)OCc2ccccc2)n1)c1cccc(F)c1 [Example 163] | – | 3.5 | –
CCC#CCOC(=O)Nc1cccc(CON=C(c2ccccc2)c2nc(=O)on2C)n1 [Example 137] | – | 3.21 | –
Cn1oc(=O)nc1C(=NOCc1cccc(NC(=O)OCCCC2CCCC2)n1)c1ccccc1 [Example 130] | – | 4.68 | –
C#CCOC(=O)Nc1cccc(CON=C(c2ccccc2)c2nc(=O)on2C)n1 [Example 131] | – | 2.57 | –
